What all share (format): cell-based
One assay concerns the target T1, α4β1 (Homo sapiens, UniProt P05556+P13612).
T1 construct: Jurkat cells expressing α4β1; Marcinkiewicz (Temple University, Philadelphia, Pa.); host or cells: Jurkat
Put plainly: Cell adhesion assay to assess specificity: Jurkat cells on VCAM. The procedure: (§1) The ligands (3 μg/ml of collagen IV for […] or 3 μg/ml of collagen I for α2β1) for the test designed to assess the specificity of representative embodiments of the instant compounds for the α2β1 integrin were immobilized on 96-well flat microtiter plates (100 μl for each well) in PBS buffer solution overnight at 4° C. In the case of VCAM (3 μg/ml, for α4β1) and fibronectin (10 μg/ml, for α5β1), 20 mM acetic acid was used instead of PBS buffer solution. As those skilled in the art will recognize, VCAM is a known endothelial ligand for α4β1/VLA-4, and fibronectin is a known ligand for […]. In the case of α1β1 and α2β1, blocking was performed with 1% BSA in HBSS buffer solution containing Mg^2+ (but without Ca^2+) for 1 hour. In the case of α4β1 and α5β1, 1% BSA in HyQ HBSS buffer solution containing Ca^2+ and Mg^2+ was used. […] After centrifugation and washing with buffer solution containing 1% BSA, cells were re-suspended in same buffer solution (1×10^6 cells/ml) and incubated in the presence of a different concentration of inhibitors at room temperature for 15 minutes. Cells were added to the wells (100 μl/well) and incubated at 37° C. for 30 minutes. Unbound cells were washed out and bound cells were lysed by the addition of 0.5% Triton X-100.
(§2) The K562 cells expressing α5β1 integrin, Jurkat cells expressing α4β1, and K562 cells transfected with α1 and α2 integrins were provided by Dr. C. Marcinkiewicz (Temple University, Philadelphia, Pa.).
(§3) Plates were read using a Cytofluor 2350 fluorescence plate reader (Millipore, Bedford, Mass.) with a 485 nm (excitation) and 530 nm (emission).

The target of a further assay is T2, α2β1 (Homo sapiens, UniProt P05556+P17301).
T2 construct: Marcinkiewicz (Temple University, Philadelphia, Pa.); host or cells: K562
Briefly: Cell adhesion assay to assess specificity: α2-transfected K562 cells on collagen I. The procedure: as §1, §2, §3

The next assay addresses T3, α2β1 integrin (Homo sapiens, UniProt P05556+P17301).
T3 construct: endogenous in cells; host or cells: gel-filtered human platelets of a single donor
Put plainly: Platelet adhesion assay (human platelet adhesion to type I collagen). As for the experimental part:
The inhibitory strength of the compounds of the present disclosure was analyzed as against platelet adhesion to type I collagen. Ninety-six well flat bottom microtiter plates (Immulon 2, Dynatech Laboratories, Chantilly, Va.) were coated with collagen, purified human fibrinogen, or bovine serum albumin, each dissolved in 50 mM NaHCO3 buffer, pH 8.0, containing 150 mM NaCl as previously described. See Bennett J S, Chan C, Vilaire G, Mousa S A, DeGrado W F. Agonist-Activated αvβ3 on Platelets and Lymphocytes Binds to the Matrix Protein Osteopontin. J Biol Chem. 272, 8137-814) (1997). Unoccupied protein binding sites on the wells were blocked with 5 mg/ml bovine serum albumin dissolved in the same buffer. Human platelets were isolated from blood anticoagulated with 0.1 volume 3.8% sodium citrate by gel-filtration using a 4 mM HEPES buffer, pH 7.4, containing 135 mM NaCl, 2.7 mM KCl, 5.6 mM glucose, 3.3 mM NaH2PO4, 0.35 mg/ml bovine serum albumin and various concentrations of CaCl2 or MgCl2 according to the experiment. One hundred μl aliquots of the gel-filtered platelet suspension containing 1-2×10^8 platelets were added to the protein-coated wells in the absence or presence of a platelet agonist. Following an incubation for 30 min at 37° C. without agitation, the plates were washed 4 times with the Tris-buffered NaCl, containing 2 mM MgCl2, pH 7.4, and the number of adherent platelets measured using the colorimetric assay reported by Bellavite P, Andrioli G, Guzzo P, et al. A colorimetric method for the measurement of platelet adhesion in microtiter plates. Anal Biochem. 216, 444-450 (1994). Briefly, 150 μl of a 0.1 M citrate buffer, pH 5.4, containing 5 mM p-nitrophenyl phosphate and 0.1% Triton X-100 was added to the wells after washing. After an incubation for 60 min at room temperature in the absence of ambient light, color was developed by the addition of 100 μl of 2N NaOH and, using EL800 Universal Microplate Reader (Bio-Tek Instruments, Inc., Winooski, Vt.), read in microtiter plate reader at 405 nm.
The potencies of the compounds of the present disclosure were determined by testing the ability of a range of concentrations of each compound to inhibit human platelet adhesion to soluble collagen under static conditions. Owing to the fact that soluble collagen is a specific ligand for α2β1 integrin, this is an accepted method of assessing α2β1 inhibition on platelets.
IC50 values were determined by using the platelets of a single donor. In cases where multiple assays were performed, the reported results reflect the average IC50 value derived from the separate assays.

A further assay has as its target T4, α1β1 (Homo sapiens, UniProt P05556+P56199).
T4 construct: Marcinkiewicz (Temple University, Philadelphia, Pa.); host or cells: K562
Put plainly: Cell adhesion assay to assess specificity: α1-transfected K562 cells on collagen IV. Conditions: read-out: % inhibition at 3 μM, α1β1. The procedure:
as §1, §2, §3

Setting [1] is: human platelet adhesion to type I (soluble, monomeric) collagen, static conditions, single donor, read-out: IC50.
Setting [2] is: platelets on collagen I, read-out: IC50 (nM), α2β1, Platelet, Collagen I.

One may read the IC50 as the concentration that inhibits the measured activity by half. The term inhibition denotes the drop in the measured response relative to a control, in per cent.

Like-named read-outs stand apart in the source and are kept apart here.

T4 sequence (P56199 29-1179): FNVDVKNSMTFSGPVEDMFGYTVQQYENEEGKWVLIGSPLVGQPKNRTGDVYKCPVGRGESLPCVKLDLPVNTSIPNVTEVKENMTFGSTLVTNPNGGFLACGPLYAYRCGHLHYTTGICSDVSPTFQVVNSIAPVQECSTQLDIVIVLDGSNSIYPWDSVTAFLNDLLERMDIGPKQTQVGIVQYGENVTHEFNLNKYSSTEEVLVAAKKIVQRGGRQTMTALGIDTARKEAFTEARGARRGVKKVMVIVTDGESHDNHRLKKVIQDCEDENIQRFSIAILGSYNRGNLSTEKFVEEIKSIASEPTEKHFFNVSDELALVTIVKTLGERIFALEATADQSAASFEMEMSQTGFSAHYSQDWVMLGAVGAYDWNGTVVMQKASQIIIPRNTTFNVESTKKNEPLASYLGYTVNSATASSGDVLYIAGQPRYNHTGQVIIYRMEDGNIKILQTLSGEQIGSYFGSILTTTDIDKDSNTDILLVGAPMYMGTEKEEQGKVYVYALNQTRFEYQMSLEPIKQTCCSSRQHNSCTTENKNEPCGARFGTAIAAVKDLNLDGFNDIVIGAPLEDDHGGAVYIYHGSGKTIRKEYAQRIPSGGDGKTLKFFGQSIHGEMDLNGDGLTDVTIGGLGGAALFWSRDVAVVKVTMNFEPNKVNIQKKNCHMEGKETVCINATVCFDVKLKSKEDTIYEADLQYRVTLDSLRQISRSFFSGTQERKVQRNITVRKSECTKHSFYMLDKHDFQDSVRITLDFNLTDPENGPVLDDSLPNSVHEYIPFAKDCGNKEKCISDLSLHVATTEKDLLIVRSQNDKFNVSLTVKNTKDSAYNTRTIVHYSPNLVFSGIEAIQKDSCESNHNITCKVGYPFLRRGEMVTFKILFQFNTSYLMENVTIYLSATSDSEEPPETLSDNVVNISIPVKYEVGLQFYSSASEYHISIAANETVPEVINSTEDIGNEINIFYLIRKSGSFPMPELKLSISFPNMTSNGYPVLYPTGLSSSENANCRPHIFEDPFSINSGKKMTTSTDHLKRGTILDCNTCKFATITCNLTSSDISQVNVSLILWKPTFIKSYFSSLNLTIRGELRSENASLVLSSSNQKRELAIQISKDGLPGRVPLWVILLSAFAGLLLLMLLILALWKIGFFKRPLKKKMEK
T4 sequence (P05556 21-798): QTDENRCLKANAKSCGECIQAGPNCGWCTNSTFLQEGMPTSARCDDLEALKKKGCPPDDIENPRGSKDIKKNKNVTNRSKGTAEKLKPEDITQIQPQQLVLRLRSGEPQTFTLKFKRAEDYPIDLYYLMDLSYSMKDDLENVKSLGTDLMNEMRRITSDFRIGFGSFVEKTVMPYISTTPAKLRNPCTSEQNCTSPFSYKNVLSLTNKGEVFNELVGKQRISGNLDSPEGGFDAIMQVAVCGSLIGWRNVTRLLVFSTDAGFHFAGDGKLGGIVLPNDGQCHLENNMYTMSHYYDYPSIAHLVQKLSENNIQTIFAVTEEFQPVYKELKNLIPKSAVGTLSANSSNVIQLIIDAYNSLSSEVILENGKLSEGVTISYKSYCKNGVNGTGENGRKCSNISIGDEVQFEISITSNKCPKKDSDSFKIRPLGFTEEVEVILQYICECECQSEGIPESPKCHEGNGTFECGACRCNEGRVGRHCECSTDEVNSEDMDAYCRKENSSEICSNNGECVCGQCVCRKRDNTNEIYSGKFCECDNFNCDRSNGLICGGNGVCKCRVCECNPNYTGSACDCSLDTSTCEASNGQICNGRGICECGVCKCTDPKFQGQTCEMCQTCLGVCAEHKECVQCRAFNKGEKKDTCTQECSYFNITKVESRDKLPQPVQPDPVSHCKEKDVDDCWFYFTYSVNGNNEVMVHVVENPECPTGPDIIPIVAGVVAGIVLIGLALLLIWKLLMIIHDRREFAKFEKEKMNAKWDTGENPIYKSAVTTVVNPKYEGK
T3 sequence (P17301 30-1181): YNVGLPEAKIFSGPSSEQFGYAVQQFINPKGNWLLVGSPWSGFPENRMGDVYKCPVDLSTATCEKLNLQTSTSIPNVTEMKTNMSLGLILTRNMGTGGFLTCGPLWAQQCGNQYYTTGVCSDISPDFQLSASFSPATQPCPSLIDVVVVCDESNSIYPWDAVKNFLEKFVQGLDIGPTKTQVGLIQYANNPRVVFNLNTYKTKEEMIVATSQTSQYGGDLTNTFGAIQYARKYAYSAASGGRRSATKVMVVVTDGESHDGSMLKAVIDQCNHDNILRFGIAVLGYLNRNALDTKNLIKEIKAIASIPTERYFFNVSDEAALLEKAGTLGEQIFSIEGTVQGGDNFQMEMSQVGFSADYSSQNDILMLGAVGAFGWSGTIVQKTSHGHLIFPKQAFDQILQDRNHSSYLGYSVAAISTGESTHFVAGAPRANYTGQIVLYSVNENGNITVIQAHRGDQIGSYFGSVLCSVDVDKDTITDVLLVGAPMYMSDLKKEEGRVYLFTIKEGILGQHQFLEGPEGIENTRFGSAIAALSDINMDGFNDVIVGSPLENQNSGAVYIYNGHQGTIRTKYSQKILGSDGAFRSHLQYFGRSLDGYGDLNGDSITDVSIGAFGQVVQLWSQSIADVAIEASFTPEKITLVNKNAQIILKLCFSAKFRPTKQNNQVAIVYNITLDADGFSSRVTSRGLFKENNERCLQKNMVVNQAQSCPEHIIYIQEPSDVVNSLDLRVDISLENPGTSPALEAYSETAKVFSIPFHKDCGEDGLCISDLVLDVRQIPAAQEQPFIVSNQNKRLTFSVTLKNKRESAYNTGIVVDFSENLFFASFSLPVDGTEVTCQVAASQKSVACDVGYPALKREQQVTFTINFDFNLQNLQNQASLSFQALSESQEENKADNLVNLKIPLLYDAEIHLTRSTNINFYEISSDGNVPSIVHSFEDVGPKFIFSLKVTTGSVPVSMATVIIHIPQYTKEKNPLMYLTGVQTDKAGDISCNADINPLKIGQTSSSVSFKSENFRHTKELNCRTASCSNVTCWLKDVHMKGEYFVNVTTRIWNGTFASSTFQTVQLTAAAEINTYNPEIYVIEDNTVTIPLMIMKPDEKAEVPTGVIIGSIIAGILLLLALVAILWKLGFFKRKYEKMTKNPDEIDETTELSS
T3 sequence (P05556 21-798): as the sequence (P05556 21-798) above
T2 sequence (P17301 30-1181): as the sequence (P17301 30-1181) above
T2 sequence (P05556 21-798): as the sequence (P05556 21-798) above
T1 sequence (P13612 34-1032): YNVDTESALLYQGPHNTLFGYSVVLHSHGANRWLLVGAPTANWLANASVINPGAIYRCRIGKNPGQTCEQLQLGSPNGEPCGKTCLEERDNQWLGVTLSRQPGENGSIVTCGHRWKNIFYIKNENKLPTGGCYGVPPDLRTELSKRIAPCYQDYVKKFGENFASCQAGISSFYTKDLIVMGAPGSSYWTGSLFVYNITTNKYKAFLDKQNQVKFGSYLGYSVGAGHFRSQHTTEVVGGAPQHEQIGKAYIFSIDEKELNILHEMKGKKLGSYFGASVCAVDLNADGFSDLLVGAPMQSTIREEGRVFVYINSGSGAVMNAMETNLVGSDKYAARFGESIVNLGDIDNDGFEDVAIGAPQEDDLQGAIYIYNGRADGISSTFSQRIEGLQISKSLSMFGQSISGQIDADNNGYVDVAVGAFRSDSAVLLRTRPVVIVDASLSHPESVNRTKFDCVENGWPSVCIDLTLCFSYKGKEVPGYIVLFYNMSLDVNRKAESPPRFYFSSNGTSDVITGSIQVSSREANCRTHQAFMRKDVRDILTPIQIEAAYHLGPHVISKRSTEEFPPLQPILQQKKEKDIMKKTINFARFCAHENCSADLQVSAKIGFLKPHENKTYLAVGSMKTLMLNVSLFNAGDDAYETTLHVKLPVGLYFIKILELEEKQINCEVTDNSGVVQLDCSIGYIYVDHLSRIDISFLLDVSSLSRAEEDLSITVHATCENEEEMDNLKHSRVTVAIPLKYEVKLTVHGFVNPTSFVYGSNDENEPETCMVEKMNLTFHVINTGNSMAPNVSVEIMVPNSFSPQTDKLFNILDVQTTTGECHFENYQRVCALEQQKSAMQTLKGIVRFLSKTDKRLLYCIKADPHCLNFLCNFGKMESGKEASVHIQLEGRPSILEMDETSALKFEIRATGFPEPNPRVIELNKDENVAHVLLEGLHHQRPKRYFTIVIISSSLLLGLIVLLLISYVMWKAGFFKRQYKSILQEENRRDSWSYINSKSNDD
T1 sequence (P05556 21-798): as the sequence (P05556 21-798) above

In the case of `Nc1ccc(CNC(=O)NC[C@H](NC(=O)[C@@H]2CCCN2S(=O)(=O)c2ccccc2)C(=O)O)cc1` [Compound 30, 3-[3-(4-Amino-benzyl)-ureido]-2-[(1-benzenesulfonyl-pyrrolidine-2-carbonyl)-amino]-propionic acid], the IC50 on α4β1 stood at 1970 nM; against α2β1, 102 nM; on α2β1 integrin (setting [1]), 23 nM; on α2β1 integrin (setting [2]), 23 nM. Besides, the inhibition at 3 µM at α1β1 came to 22%.

In the case of `Cc1cc(C)cc(S(=O)(=O)N2CCC[C@H]2C(=O)N[C@@H](CNC(=O)NCc2ccccc2)C(=O)O)c1` [Compound 31, 3-(3-Benzyl-ureido)-2-{[1-(3,5-dimethyl-benzenesulfonyl)-pyrrolidine-2-carbonyl]-amino}-propionic acid], the IC50 came out at 740 nM at α4β1, 89 nM on α2β1, 29 nM on α2β1 integrin (setting [1]) and 29 nM at α2β1 integrin (setting [2]). Further, the inhibition at 3 µM on α1β1 worked out at 26%.

With `O=C(NCc1ccccc1)NC[C@H](NC(=O)[C@@H]1CCCN1S(=O)(=O)c1cc(Cl)cc(Cl)c1)C(=O)O` [Compound 48, 3-(3-Benzyl-ureido)-2-{[1-(3,5-dichloro-benzenesulfonyl)-pyrrolidine-2-carbonyl]-amino}-propionic acid], the IC50 on α4β1 came to 637 nM; against α2β1, 83 nM; at α2β1 integrin (setting [1]) it was 17 nM; on α2β1 integrin (setting [2]) it was 17 nM. On α1β1, the inhibition at 3 µM stood at 32%.

(Values after patent US8258159B2, “Inhibitors of the α2β1/GPIa-IIa integrin” (The Trustees Of The University Of Pennsylvania, priority 2005, dated 2012).)
